These results are taken from patent US20260355318A1, “MOLECULAR MACHINES FOR TREATMENT OF CANCER, FUNGAL INFECTIONS, OR BACTERIAL INFECTIONS” (priority 2022, published 2026).

Test [1] has as its system E. coli. Description: MIC, E. coli. Conditions: Escherichia coli, read-out: MIC of MM. It is filed as cell-based, Escherichia coli BW25113.
Test [2] relates to S. aureus. The test can be described thus: Time-kill / light-dose experiments, S. aureus. Conditions: 2×MIC, 146 mW cm^−2 405 nm. The class given is cell-based, Staphylococcus aureus. How it is done: (§1) Serial dilutions of irradiated cell suspensions were prepared in PBS. A volume of 10 AL of the appropriate serial dilutions was spot-plated onto LB agar plates. Following overnight incubation at 30 or 37 ° C, depending on the strain, bacterial viability was assessed as colony forming units (CFU) per mL. Results were expressed as log (N/NO) whereby N is the CFU mL^−1 at each irradiation time point and NO is the initial CFU mL^−1 of the corresponding sample. Only dilutions that yielded 10-100 colonies were counted.

Test [3] relates to A. baumannii. Description: MIC, A. baumannii. The class given is cell-based, Acinetobacter baumannii. The conditions noted are these: Acinetobacter baumannii, read-out: MIC of MM. How it is done:
(§2) The appropriate volume of an MM stock at 8 mM necessary to achieve a concentration ranging from 0.3125 to 40 μM was pipetted into a 2 mL microcentrifuge tube to which 1 mL of cell suspension prepared as previously described was added. Corresponding negative controls (DMSO only) were prepared in the same way. The mixture was gently mixed by pipetting and incubated in the dark at 30 or 37 ° C, depending on the strain, for 30 min with agitation (220 rpm). Afterward, MM- or DMSO-treated cells were dispensed in one well of a 24-well plate positioned in the center of the light beam (405 nm LED Light, Prizmatix, UHP—F-5-405) placed at the appropriate distance necessary to achieve the desired light intensity of 304 mW cm-2, 146 mW cm2 or 87 mW cm2, as measured with a handheld digital power meter console coupled to an S415C thermal power sensor head (Thorlabs, Newton, MA, USA). The temperature during irradiation was monitored using a thermocouple probe (Model SC-TT-K-30-36-PP; Omega Engineering, Inc., Stanford, CT, USA). Samples were agitated during irradiation. Dark controls were prepared as previously described except that no irradiation was provided.
(§3) For MIC determination, samples treated with a range of concentrations of the different MM, as described above and were irradiated one at a time for 5 min at 146 mW cm^−2 (43.8 J cm^−2), after which irradiated aliquots were collected and inoculated into 1 mL MHB in a 2 mL microcentrifuge tube. Samples were incubated overnight at 30 or 37 ° C, depending on the strain, without agitation. Corresponding non-irradiated samples and negative controls (without bacteria) were also included. The following day, cultures were inspected for growth and the MIC was identified. The experimental procedure used to determine the MIC of visible light-activated MMs is schematically depicted in FIG. 26.

For test [4], the system named is P. aeruginosa. Description: MIC, P. aeruginosa. It is filed as cell-based, Pseudomonas aeruginosa. Conditions: Pseudomonas aeruginosa, read-out: MIC of MM. The protocol: as §2, §3
Test [5] deals with persister cells of S. aureus. The test can be described thus: Persister eradication, S. aureus. It is filed as cell-based, Staphylococcus aureus. The conditions noted are these: 1×MIC, 405 nm. How it is done:
(§4) Persister cells of E. coli were prepared by adding ampicillin (100 μg mL^−1) to exponential-phase cells (OD600 of ≈0.8) followed by continuous agitation for another 3 b, as previously described (Keren et al., 2004). In the case of S. aureus, almost all stationary-phase are considered to be persistent (Keren et al., 2004). S. aureus cells were grown at 37 ° C and 220 rpm in LB broth to an OD600 of 0.3. Cells were then diluted 1:1000 in 25 mL LB and grown for 16 h at 37 ° C and 220 rpm in 250 mL flasks. […] At specified time points (0, 1, 2, 3, 4 and 5, 10 and 15 min), 50-μL aliquots were removed, serially diluted and spot-plated onto LB agar plates to determine colony-forming units per mL (CFU mL^−1). Only dilutions that yielded 10-100 colonies were counted. Results were expressed as log (N/NO) whereby N is the CFU mL^−1 at each irradiation time point and NO is the initial CFU mL^−1 of the corresponding sample. […].

Test [6] concerns S. aureus. The test can be described thus: MIC, S. aureus. The class given is cell-based, Staphylococcus aureus. Conditions: Staphylococcus aureus, read-out: MIC of MM. How it is done: as §2, §3
The subject of test [7] is persister cells of P. aeruginosa. The test can be described thus: Persister eradication, P. aeruginosa. It is filed as cell-based, Pseudomonas aeruginosa. Conditions: 1×MIC, 405 nm.
Test [8] concerns persister cells of E. coli. The test can be described thus: Persister eradication, E. coli. It is filed as cell-based, Escherichia coli. Conditions: 1×MIC, 405 nm. How it is done: as §4
The test system of test [9] is E. coli. The test can be described thus: Time-kill / light-dose experiments, E. coli. The class given is cell-based, Escherichia coli. Conditions: for time to reduce cell number to limit of detection: E. coli, 2×MIC, 146 mW cm^−2 405 nm. The protocol: as §1
Test [10] deals with A. baumannii. Description: Time-kill / light-dose experiments, A. baumannii. It is filed as cell-based, Acinetobacter baumannii. The conditions noted are these: 2×MIC, 146 mW cm^−2 405 nm. How it is done:
as §1

For test [11], the system named is P. aeruginosa. The test can be described thus: Time-kill / light-dose experiments, P. aeruginosa. It is filed as cell-based, Pseudomonas aeruginosa. Conditions: 2×MIC, 146 mW cm^−2 405 nm. How it is done:
as §1

Test [12] deals with persister cells of A. baumannii. Description: Persister eradication, A. baumannii. The class given is cell-based, Acinetobacter baumannii. The conditions noted are these: 1×MIC, 405 nm.
The test system of test [13] is E. coli. The test can be described thus: Effect of ROS scavengers on MM 1-induced killing of E. coli. It is filed as cell-based, Escherichia coli. The conditions noted are these: MM 1 2×MIC, NAC 1 mM, TU 100 mM. An excerpt: All results are shown as the mean of at least 3 biological replicas±standard error of the mean.
A further test has as its system C. albicans. Description: MIC, visible-light-activated MMs and conventional antifungals, C. albicans. The conditions noted are these: Candida albicans, read-out: MIC of antifungal agent. The class given is cell-based, Candida albicans (ATCC 18804). The protocol:
C. albicans cell suspensions were incubated with increasing concentrations of MMs and irradiated with 405-nm light at 292 mW cm^−2 for 5 min (87.6 J cm^−2). The minimum inhibitory concentration (MIC) was defined as the MM concentration resulting in no visible fungal growth after irradiation with 87.6 J cm^−2 of 405-nm light.
(§5) Cell suspensions for susceptibility testing (MMs and conventional antifungals) were prepared per the Clinical & Laboratory Standards Institute (CLSI) guidelines (CLSI, 2017; CLSI, 2008). Before testing, yeasts (C. albicans and S. cerevisiae) were sub-cultured in Sabouraud Dextrose Agar-Emmons Modification (SDAE) plates and grown for 24 h at 30 °C. Five independent colonies from 24-h-old plates were collected and diluted to ~10^4 colony forming units (CFU) per mL in sterile saline (CLSI, 2017). Molds (A. fumigatus and the dermatophytes T. rubrum and M. gypseum) were sub-cultured on SDAE medium and incubated for 7 days at 28 °C. Conidia were recovered by covering the plates with sterile distilled water and scraping the colonies. The suspensions were filtered (8-μm pore size) and diluted in saline to ~10^4 CFU mL^−1 (Santos and Hamdan, 2005).
(§6) After a 30-min incubation in the dark, cell suspensions were transferred to small, sterilized glass beakers, which were then placed in a water bath. Each sample was irradiated with 405-nm light at 292 mW cm^−2 for 5 min, corresponding to a light dose of 87.6 J cm^−2, determined using an S415C thermal power sensor (Thorlabs, Newton, MA, USA). During irradiation, the cell suspensions were agitated with a small metal stirrer. A thermocouple probe (model SC-TT-K-30-36-PP; Omega Engineering, Inc., Stanford, CT, USA) was used to monitor the temperature during irradiation. Irradiated cell suspensions were inoculated in 3-(N-morpholino) propanesulfonic acid (MOPS)-buffered Roswell Park Memorial Institute Medium (RPMI) 1640 (pH 7.0). Tubes were incubated at 30 ° C for 48 h (yeasts) and 28 ° C for 7 days (molds). The antifungal or MM concentration resulting in no visible growth was defined as the minimum inhibitory concentration (MIC) (CLSI, 2017; CLSI, 2008). Similarly prepared cell suspensions were used to determine the MIC of conventional antifungals.

Another test relates to S. cerevisiae. The test can be described thus: MIC, MMs and antifungals, S. cerevisiae. It is filed as cell-based, Saccharomyces cerevisiae (ATCC 13007). The conditions noted are these: Saccharomyces cerevisiae, broth microdilution, read-out: MIC of antifungal agent. The protocol: as §5, §6
A general note: Broth dilution looks for growth in wells or tubes with falling amounts of substance.

Where [14] appears, read: E. coli BW25113, 405 nm light 43.8 J cm^−2.
Where [15] appears, read: E. coli, Table 9, 405 nm light 43.8 J cm^−2.

Like-named read-outs stand apart in the source and are kept apart here.

On to `C[C@@H]1Cc2cc(NCCN(C)C)c3ccccc3c2C1=C1c2ccccc2Sc2ccccc21` (stereo in doubt) [MM 2, N^1,N^1-Dimethyl-N^2-(2-methyl-1-(9H-thioxanthen-9-ylidene)-2,3-dihydro-1H-cyclopenta[a]naphthalen-5-yl) ethane-1,2-diamine], for which the minimal inhibitory concentration (MIC) (commonly the least concentration at which growth counts as inhibited) with E. coli [1] (setting [14]) came out at 32 µM; in the test on E. coli [1] (setting [15]), 32 µM; with A. baumannii [3], 20 µM; in the test on P. aeruginosa [4] it was 5 µM; with S. aureus [6], 1.25 µM. Also, in the test on S. aureus [2], the “time to complete elimination” value turned out to be 4 min. Also, the “time to reduce persister cells to limit of detection” value in test [5] is given as 3 min; in test [7], 15 min; in [8] it was 5 min. Moreover, the “time to reduce cell number to limit of detection” value in the test with E. coli [9] is listed as 10 min.
For the compound `Br.COc1cc2c(c3ccccc13)/C(=C1\c3ccccc3Sc3ccc(C#CCCCC[P+](c4ccccc4)(c4ccccc4)c4ccccc4)cc31)[C@H](C)C2` (stereo in doubt) [MM 4, (6-(9-(5-methoxy-2-methyl-2,3-dihydro-1H-cyclopenta[a]naphthalen-1-ylidene)-9H-thioxanthen-2-yl)hex-5-yn-1-yl)triphenylphosphonium bromide], the MIC in the test on E. coli [1] (setting [14]) was determined as 0.625 µM; in the test on E. coli [1] (setting [15]), 1 µM; in the test with A. baumannii [3], 2.5 µM; with P. aeruginosa [4], 0.625 µM; in the test on S. aureus [6], 0.078 µM. Moreover, the “time to reduce cell number to limit of detection” value in the test on A. baumannii [10] came out at 3 min; in the test with P. aeruginosa [11], 3 min; in the test with E. coli [9] it was 4 min. Further, the “time to complete elimination” value with S. aureus [2] is 2 min. Further, the “time to reduce persister cells to limit of detection” value was 3 min in [5] and 5 min in test [8]. The “bacterial toxicity in the absence of light” value in the test with E. coli [9] (FIG. 31, different bacterial strains, no light) is given as “Some toxicity of the MM itself (in the absence of light)”.
With `C[C@@H]1Cc2cc(N(C)CCN(C)C)c3ccccc3c2C1=C1c2ccccc2Sc2ccccc21` [MM 3, N^1,N^1,N^2-trimethyl-N^2-(2-methyl-1-(9H-thioxanthen-9-ylidene) ~2,3-dihydro-1H-cyclopenta[a]naphthalen-5-yl) ethane-1,2-diamine], the minimal inhibitory concentration (MIC) in the test on E. coli [1] (setting [15]) is 16 µM; with A. baumannii [3], 20 µM; in the test with P. aeruginosa [4] it was 5 µM; with S. aureus [6], 1.25 µM. Further, the “time to reduce cell number to limit of detection” value in the test on A. baumannii [10] and with P. aeruginosa [11] was 10 min in each case. For the same compound, in the test on S. aureus [2], the “time to complete elimination” value came to 4 min. The “time to reduce persister cells to limit of detection” value in [5] is on record as 10 min; in test [12], 15 min; in test [8], 10 min.
In the case of `CC(=O)N[C@@H](CS)C(=O)O` [N-acetyl-L-cysteine], the “protection against MM-induced killing by ROS scavenger” value in the test with E. coli [13] is given as “does not protect against MM-induced killing in E. coli”.
As for `CC[C@H](C)C[C@H](C)CCCCCCCCC(=O)N[C@H]1C[C@@H](O)[C@@H](NCCN)NC(=O)[C@@H]2[C@@H](O)CCN2C(=O)[C@H]([C@H](O)CCN)NC(=O)[C@H]([C@H](O)[C@@H](O)c2ccc(O)cc2)NC(=O)[C@@H]2C[C@@H](O)CN2C(=O)[C@H]([C@@H](C)O)NC1=O` [Caspofungin (CAS), Caspofungin], the MIC in the test with C. albicans worked out at 0.25 µg/mL; in the test with S. cerevisiae it was 0.5 µg/mL.
Regarding `NC(N)=S` [thiourea], the “protection against MM-induced killing by ROS scavenger” value in the test on E. coli [13] is given as “does not protect against MM-induced killing in E. coli”.
